Source: US20240150339A1, “Compounds and Their Use as PDE4 Activators” (Mironid Limited, priority 2021, published 2024)
Structures can show the parent of a compound that is named as a salt.

Legend:
[1] = tested on: MDCK cells; experiment: Inhibition of PGE2-stimulated in vitro cyst formation in 3D culture of MDCK cells; type: cell-based; conditions: total cyst area (%) compared to 100% for (DMSO + PGE2) and 0% for DMSO control, 300 nM PGE2
Description: HEK 293 and MDCK cells (Public Health England, Cell Culture Collections) were maintained in Dulbecco's Modified Eagle's Medium (DMEM) supplemented with 10% (v/v) fetal bovine serum (FBS) (Seralab), 2 mM L-glutamine and 100 U/ml penicillin streptomycin cocktail (ThermoFisher); termed complete media. Clonal HEK 293 cell lines were maintained in complete media supplemented with 0.6 mg/mL G418 (Enzo Life Sciences). Mouse inner medullary collecting duct (m-IMCD3) cells [American Type Culture Collection (ATCC)] were maintained in media consisting of DMEM/Hams F-12 50/50 Mix (DMEM F12; Corning) supplemented with penicillin streptomycin cocktail (100 U/ml) and FBS (10% v/v) (DMEM F12-10% FBS).
In this study, the well-established three-dimensional (3D) MDCK cell model is used to investigate the effects of PDE4 long form activators on the formation of kidney cysts and evaluate their potential in the treatment of polycystic kidney diseases. 3D cysts are generated based on the method of Mao et al. (Mao, Z., Streets, A. J., Ong, A. C. M. Am. J. Physiol. Renal Physiol. 300 (6): F1375-F1384, 2011), with some modifications.
The assay is conducted in the wells of a 96-well plate culture dish using a total volume of 130 μl of collagen suspension in growth media for each matrix plug per individual well. Rat Collagen I (Fisher Scientific) is prepared on ice by neutralising with 1M NaOH and diluting with a 2×volume of DMEM-2% FBS. 30 μl of collagen/Media mix is added into the well of a 96 well plate and the collagen is set to a gel by incubating at 37° C. for at least 15 minutes. A second layer of 100 μl collagen/Matrigel suspension containing MDCK cells (1.0×10^4 MDCK cells per well) is then layered over the first layer and the collagen/cell mix again set to a gel by incubating at 37° C. 100 μl DMEM growth media is added and cells are incubated at 37° C. for 24 hours. 24 hours after cell seeding, DMEM-2% FBS is added along with the test compound indicated in the presence of 300 nM prostaglandin E2 (PGE2) (Sigma Aldrich) in quadruplicate wells per condition. Media, together with the test compound and PGE2 are replenished every 3 days for 10-15 days.
After 10-15 days of culture z stack images of the wells are captured using the Nikon Eclipse Ti2-E microscope. Nikon General Analysis software is used to measure the following parameters in each well: the mean cyst area, the number of cysts, and the total cyst area.
PDE4 long form activators inhibited in vitro cyst formation in MDCK cells. Data are shown in Table 6 as total cyst area (%), compared to 100% for (DMSO+PGE2) and 0% for DMSO control.

[2] = tested on: m-IMCD3 cells; experiment: Inhibition of PGE2-stimulated in vitro cyst formation in 3D culture of m-IMCD3 cells; type: cell-based, mouse; conditions: Mus musculus, mIMCD3, 144 h; 10 μM test compound; mean cyst area (%) compared to 100% for (DMSO + PGE2) and 0% for DMSO control; 100 nM PGE2; 6 days; read-out: % Cyst area after incubation with 10 μM test compound
Outline: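 Mouse m-IMCD3 cells grown in 3D collagen I/Matrigel gels. From 18-24 h after plating, compound (0.1% DMSO) plus 100 nM PGE2 were added and replenished at 2-3 days. After 6 days, imaging gave mean cyst area, scaled to 100% for DMSO+PGE2 and 0% for DMSO alone.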

[3] = tested on: m-IMCD3 cell culture; experiment: Reduction of cAMP levels in m-IMCD3 cell culture media (cAMP ELISA); type: cell-based, mouse; conditions: compared to 100% for (DMSO + PGE2)
From the text: Experiment 4a: Reduction of cAMP Levels in m-IMCD3 Cell Culture Treated with PDE4 Long Form Activators Activation of intracellular PDE4 long forms leads to a reduction of both intracellular cAMP and externalised cAMP (Omar et al., PNAS 116: 13320-13329, 2019). This reduction may be measured in the cell culture media supernatant of 3D cystic cell cultures, such as in the m-IMCD3 cell cyst suppression assay described in Experiment 4.
Following the completion of the m-IMCD3 cell cyst suppression assay, the cAMP levels in the assay media from individual assay wells was measured using a cAMP ELISA kit (Enzo Life Sciences) according to the manufacturer's instructions.
Treatment with PDE4 long form activators reduced cAMP levels in PGE2-stimulated m-IMCD3 cell culture.

Structure (SMILES) | % Cyst area after incubation with 1 μM test compound [1] | activity at 10 µM [2] | cAMP level (% of PGE2-stimulated) after incubation with 10 μM test compound [3]
O=C(N[C@H]1CCOc2ccccc21)c1ccc2nc(N3CCNCC3)sc2c1 [Example 83, (S)-N-(chroman-4-yl)-2-(piperazin-1-yl)benzo[d]thiazole-6-carboxamide hydrochloride] | −1% | 6% | 
CN1CCC(c2nc3ccc(C(=O)NC4CCCC4)cc3s2)CC1 [Example 151, N-cyclopentyl-2-(1-methylpiperidin-4-yl)benzo[d]thiazole-6-carboxamide] |  | 10% | 54%
O=C(NC1CCC(F)(F)CC1)c1ccc2nc(C3CCN(CCO)CC3)sc2c1 [Example 174, N-(4,4-difluorocyclohexyl)-2-(1-(2-hydroxyethyl)piperidin-4-yl)benzo[d]thiazole-6-carboxamide] |  |  | 27%
O=C(NC1CCC(F)(F)CC1)c1ccc2nc(N3C4CCC3CNC4)sc2c1 [Example 240, 2-(3,8-diazabicyclo[3.2.1]octan-8-yl)-N-(4,4-difluorocyclohexyl)-benzo[d]thiazole-6-carboxamide] |  | 5% | 41%
CN1CCN(c2nc3ccc(C(=O)NC4CCCC4)cc3s2)CC12CC2 [Example 260, N-cyclopentyl-2-(4-methyl-4,7-diazaspiro[2.5]octan-7-yl)benzo[d]thiazole-6-carboxamide] | 11% |  | 
